Data taken from a melting point compilation (Tetko et al.; mined from patent text by program, amines drawn as free bases though some values may be those of a salt).

melting point [°C]	SMILES
148 to 151	C=Cc1cc(C)cc(C)c1CC(=O)N(C)C1(C#N)CCN(OC)CC1
105	CCCCCCCc1cnc(-c2ccc(OC(=O)c3cc(N)c(O[C@H](C)CCCCCC)cc3[N+](=O)[O-])cc2)nc1
217 to 220	C[C@]1(COc2ccc(N3CCC(OCc4ccc(C(F)(F)F)cc4)CC3)cc2)Cn2cc([N+](=O)[O-])nc2O1
227	Cc1nccn1-c1cccc(C2=Nc3ccc(-c4ccc(F)cc4)cc3NC(=O)C2)c1
143 to 145	COC(=O)CCCCC(=O)Nc1ccc2c3c(n(CCCNC(=O)OC(C)(C)C)c(=O)c2c1)-c1ccccc1C3=O
233 to 235	CCOCc1nc2c(N)nc3cc(-c4cccnc4)ccc3c2n1CCNS(C)(=O)=O
215 to 217	CC(c1oc2ccccc2c(=O)c1-c1cccc(F)c1)n1nc(-c2ccc(C=O)o2)c2c(N)ncnc21 (stereo unspecified)
86 to 88	COC(CN(C)C(=O)Nc1ccc(Oc2cccc(C(F)(F)F)c2)cc1)OC
162 to 163	OCCc1ccccc1Nc1ncc2c(n1)-c1ccccc1[C@H](c1ccccc1F)C2
92 to 93	Cc1oc(-c2ccco2)nc1COc1ccc(Cn2cc(CCC(=O)O)c(-c3ccc(C(F)(F)F)cc3)n2)cc1
88 to 89	Cc1ccsc1-c1nc(COc2ccc(CCCCn3ccnc3)cc2)co1
87 to 97	Cc1noc(NS(=O)(=O)c2ccccc2-c2ccc(-c3nccs3)cc2)c1C
138	COCCN(CCOC)c1ccc(Nc2ncc3c(C)c(C(C)=O)c(=O)n(C4CCCC4)c3n2)nc1
110	c1ccc(COc2cccn3ccnc23)cc1
124 to 126	CCOC(=O)c1cc(C(=O)C(C)(C)Br)c(=O)[nH]c1C(=O)OCC
98 to 99	O=C(O)c1ccc(OCCCCCCO)cc1F
170	C[C@H](NC(=O)C[C@@H](CCO)c1ccc(F)cc1)c1ccccc1
87 to 88	Cc1ccc(S(=O)(=O)OCC2CCc3scnc3C2)cc1 (stereo unspecified)
140 to 141	Cc1cc(-c2cccc(C(F)(F)F)c2)c2nc(OCC(F)(F)F)nnc2c1
80	CC(=O)OCC1=C(C(=O)OC(C)(C)C)N2C(=O)C(NC(=O)CC3=CSCCS3)C2SC1 (stereo unspecified)
192 to 193	O=C1CN(c2cncc(Cl)n2)CCN1

melting point [°C]	SMILES
105 to 106	CCCCCCC(=O)CC(C)=O
188 to 190	Cc1cc(C)n2nc(S(=O)(=O)Nc3ccccc3Cl)nc2n1
286 to 287	O=C1CCC(=O)N1Cc1nc2sc3c(c2c(-c2ccc(O)cc2)c1Cl)CCNC3
242 to 245	O=C1NC(=O)C(=Cc2ccc(OCCNc3nc4ccccc4o3)cc2)S1
61 to 63	CCOC(=O)CCCOc1cccc(C=Cc2ccc3ccc(Br)cc3n2)c1
74	CC(=O)c1c(C(C)C)nn2ccccc12
123 to 124	CN1CCC2(CC1)OC(c1ccccc1)c1ccccc12 (stereo unspecified)
111 to 113	CC(C)(C)c1ccccc1NC(=O)C(=O)O
217 to 218	CCCc1[nH]c2cc(C(=O)O)ccc2c1C(=O)C1CCCCC1
58 to 60	O=C1OC(CCc2ccccc2)(c2ccccc2)CC(O)=C1Sc1ccccc1 (stereo unspecified)
178 to 180	CCOCc1nc2c(N)nc3ccccc3c2n1Cc1cc(C)no1
139 to 140	N#Cc1cc(Sc2ccc3ccccc3c2)ccc1[N+](=O)[O-]
244 to 245	CC(C)(C)OC(=O)n1c(=O)n(C2CC3CC(N4CCN(c5ccc(F)cc5)CC4)CC3C2)c2ccccc21 (stereo unspecified)
197 to 199	NC1C(O)C(CO)OC1n1ccc(=O)[nH]c1=O (stereo unspecified)
60 to 62	CC(C)c1ccn2nc(S(=O)(=O)Cl)nc2n1
165 to 167	CC(=O)Cn1c(CO)nc(C(C)C)c1Sc1cc(Cl)cc(Cl)c1
118 to 120	O=C1NC(=O)C(Cc2ccc3c(c2)CCC(Cc2ccc(OCc4ccccc4)cc2)O3)S1 (stereo unspecified)
126 to 128	CC(=O)C1C(=O)c2cccc(N)c2C1=O (stereo unspecified)
94 to 99	CC(=O)c1cc(C#N)c(OCc2ccccc2)nc1C
59 to 60	CCCOc1ccc(CO)nc1Cl
150 to 152	CSC(=CC(=O)c1cncc(F)c1)SC

The remaining lines, values behind:

SMILES	melting point [°C]
COCN1C(=O)OC(C)(C)c2cc(-c3cc(F)cc(C#N)c3)ccc21	169 to 171
CC(C)c1ccc(C2(OC(=O)N(C)C)C(=O)c3ccccc3C2=O)c(O)c1	114 to 118
Cc1c(CC(=O)O)c2cc(OCc3nc4ccccc4s3)ccc2n1Cc1ccccc1	186 to 188
CCOC(=O)c1cnn(-c2ccc(Br)cc2)c1C#N	104 to 105
COC(=O)C(=O)c1ccc(OC/C=C/c2c(C(C)C)nc3ccccc3c2-c2ccc(F)cc2)cc1	109 to 111
COC(=O)c1ccc2ccccc2c1OCC(F)(F)F	69.5 to 70.5
COc1ccccc1N1CCN(CCn2c(=O)[nH]c3scc(C)c3c2=O)CC1	209 to 213
Cc1nc2c(Cl)c(NC(=O)Cc3ccc(Cl)cc3)ccc2s1	227 to 229
CN1CCN(c2cccc3ccc(-c4cccc(F)c4)cc23)CC1	116
CCCn1c2cc(OC)ccc2c2oc(C(=O)Cl)cc21	195 to 196
OCc1ccccc1SCc1cc2c(cc1O)CCCO2	140 to 141
CCOC(=O)C1=C(C)NC(C=O)=C(C(=O)OCC)C1c1cc([N+](=O)[O-])ccc1Cl (stereo unspecified)	172 to 173
COc1cc(OC)nc(Oc2ccc3ccccc3c2C(=O)O)n1	187 to 189
NS(=O)(=O)c1ccc(-c2oc(Cl)nc2-c2ccccc2)cc1	158 to 159
CCOC(=O)Cc1csc(NC(=O)C(CC2CCCC2)c2ccc(NC(=O)c3cccnc3)cc2)n1 (stereo unspecified)	195 to 200
CCOC(=O)c1c(C)cc2nc(C(C)C)n(-c3ccccc3Cl)c(=O)c2c1C	115 to 116
O=C(O)c1c(Cl)ccc2c1OCCO2	162
COc1ccc(C(C)(C)C)cc1NC(=O)Nc1ccc(-c2cnc3c(c2)NC(=O)CS3(=O)=O)c2ccccc12	209 to 211
Cc1ccc(Cl)cc1NC(=S)Nc1nccs1	197 to 198
OCCc1c(C2=CCC(c3ccccc3)(N3CCCC3)CC2)[nH]c2ccc(F)cc12 (stereo unspecified)	188 to 191
N#Cc1cnn2c(C(F)(F)F)cc(-c3ccc(C(F)(F)F)c(F)c3)nc12	184
Cc1cc(SC#N)c(C(C)(C)C)cc1NC(=O)OC(C)(C)C	100 to 111
Cc1cccc(NC(=O)NC2N=C(c3ccccc3F)c3cccc(C)c3N(CC(=O)c3ccccc3C)C2=O)c1 (stereo unspecified)	190 to 196
CC(=O)NCCc1cn(S(=O)(=O)c2ccc(C)cc2)c2ccc(O)cc12	173 to 174
CCCNC(=O)CCn1c(CCC)nc2c(N)nc3ccccc3c21	157 to 158
OC1(c2ccc(Cl)c(Cl)c2)c2ccccc2C2=NCCN21 (stereo unspecified)	203 to 205
CC(C)(C#N)c1cc(C#N)cc(Cn2ccnc2)c1	89 to 92
CCCC(O)P(=O)(O)OCCCN (stereo unspecified)	188
CC1CCC2C(C)(C)C(=O)OC3OC4(C)CCC1C32OO4 (single isomer, unassigned; (+))	117 to 118
